The text below walks through data of ChEMBL document CHEMBL1201862, “PubChem BioAssay data set” (2004).

Activity calls are given as the source filed them.

Experiment [1] has as its target Rho-associated protein kinase 2 (Homo sapiens, UniProt O75116). In kind it is functional.
Experiment [2] deals with Serine/threonine-protein kinase Chk2 (Homo sapiens, UniProt O96017). The class given is functional.
In another experiment the target is Ephrin type-A receptor 2 (Homo sapiens, UniProt P29317). The class given is functional.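 Further: EPHA2 tested as one member of a kinome-wide kinase panel.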
Experiment [3] has as its target Casein kinase II subunit alpha (Homo sapiens, UniProt P68400). The class given is functional.
The target in experiment [4] is Tyrosine-protein kinase SYK (Homo sapiens, UniProt P43405). The class given is functional.
The target of experiment [5] is Calcium/calmodulin-dependent protein kinase type II subunit delta (Homo sapiens, UniProt Q13557). The class given is functional.
Calcium/calmodulin-dependent protein kinase type II subunit delta, sequence (Q13557 whole entry): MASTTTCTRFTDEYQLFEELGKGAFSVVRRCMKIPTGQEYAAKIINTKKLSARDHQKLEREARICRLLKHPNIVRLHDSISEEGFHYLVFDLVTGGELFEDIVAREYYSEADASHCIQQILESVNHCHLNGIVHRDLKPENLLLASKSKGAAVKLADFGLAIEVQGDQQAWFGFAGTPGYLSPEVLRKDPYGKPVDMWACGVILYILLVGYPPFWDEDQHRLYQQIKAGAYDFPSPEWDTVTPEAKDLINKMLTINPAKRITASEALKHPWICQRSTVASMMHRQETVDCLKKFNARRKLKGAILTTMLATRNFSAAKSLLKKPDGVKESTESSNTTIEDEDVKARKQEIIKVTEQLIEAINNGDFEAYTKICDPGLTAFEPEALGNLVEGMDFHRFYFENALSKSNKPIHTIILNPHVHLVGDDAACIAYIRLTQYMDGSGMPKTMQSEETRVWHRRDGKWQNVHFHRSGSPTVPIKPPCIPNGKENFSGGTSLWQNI
For experiment [6], the target named is Lymphokine-activated killer T-cell-originated protein kinase (Homo sapiens, UniProt Q96KB5). In kind it is functional.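 Further: value comes from a kinase panel screen in which TOPK was one of the panel members.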
Experiment [7] deals with cGMP-dependent protein kinase 1 (Homo sapiens, UniProt Q13976). In kind it is functional.
cGMP-dependent protein kinase 1, sequence (Q13976 whole entry): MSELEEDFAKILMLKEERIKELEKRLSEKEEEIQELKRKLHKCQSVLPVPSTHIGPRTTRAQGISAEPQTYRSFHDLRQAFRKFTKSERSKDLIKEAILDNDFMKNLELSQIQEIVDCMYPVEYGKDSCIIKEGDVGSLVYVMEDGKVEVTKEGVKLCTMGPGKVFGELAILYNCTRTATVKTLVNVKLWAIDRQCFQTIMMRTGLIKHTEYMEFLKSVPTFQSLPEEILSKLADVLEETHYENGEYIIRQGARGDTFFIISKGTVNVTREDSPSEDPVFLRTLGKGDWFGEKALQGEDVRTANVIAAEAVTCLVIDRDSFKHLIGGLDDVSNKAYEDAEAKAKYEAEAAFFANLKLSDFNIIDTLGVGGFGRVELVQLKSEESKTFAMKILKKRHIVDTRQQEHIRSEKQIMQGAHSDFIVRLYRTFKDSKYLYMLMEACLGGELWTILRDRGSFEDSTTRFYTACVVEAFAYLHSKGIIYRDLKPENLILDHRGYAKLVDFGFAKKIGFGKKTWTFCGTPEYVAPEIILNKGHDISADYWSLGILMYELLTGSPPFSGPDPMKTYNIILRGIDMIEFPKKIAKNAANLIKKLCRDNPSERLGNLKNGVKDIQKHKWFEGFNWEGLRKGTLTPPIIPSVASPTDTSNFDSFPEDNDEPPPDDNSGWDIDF
In experiment [8] the target is Tyrosine-protein kinase Fer (Homo sapiens, UniProt P16591). In kind it is functional.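 Further: FER tested as one member of a kinome panel.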
In experiment [9] the target is Mast/stem cell growth factor receptor Kit (Homo sapiens, UniProt P10721). The class given is functional.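 Further: KIT entry within a kinase panel assay.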
Experiment [10] deals with Mitogen-activated protein kinase 13 (Homo sapiens, UniProt O15264). In kind it is functional.
Mitogen-activated protein kinase 13, sequence (O15264 whole entry): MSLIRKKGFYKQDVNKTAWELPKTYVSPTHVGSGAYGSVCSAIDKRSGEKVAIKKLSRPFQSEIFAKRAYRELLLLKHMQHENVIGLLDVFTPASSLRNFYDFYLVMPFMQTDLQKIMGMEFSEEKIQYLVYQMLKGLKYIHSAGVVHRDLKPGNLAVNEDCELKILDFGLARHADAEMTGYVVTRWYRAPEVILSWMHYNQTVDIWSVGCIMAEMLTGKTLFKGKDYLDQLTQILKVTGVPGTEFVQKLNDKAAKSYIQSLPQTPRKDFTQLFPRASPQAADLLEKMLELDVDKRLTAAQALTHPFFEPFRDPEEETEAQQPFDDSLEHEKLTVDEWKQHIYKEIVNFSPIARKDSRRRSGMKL
The target of experiment [11] is RAC-gamma serine/threonine-protein kinase (Homo sapiens, UniProt Q9Y243). In kind it is functional.
The target in experiment [12] is Tyrosine-protein kinase Blk (Homo sapiens, UniProt P51451). In kind it is functional.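 Further: obtained as one member of a kinome-wide kinase assay panel.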
For experiment [13], the target named is Fibroblast growth factor receptor 3 (Homo sapiens, UniProt P22607). The class given is functional.
The target in experiment [14] is STE20-like serine/threonine-protein kinase (Homo sapiens, UniProt Q9H2G2). In kind it is functional.
For experiment [15], the target named is Serine/threonine-protein kinase pim-2 (Homo sapiens, UniProt Q9P1W9). In kind it is functional.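 Further: value comes from a broad kinase panel profiling study in which PIM2 was one of the panel members.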
Serine/threonine-protein kinase pim-2, sequence (Q9P1W9 whole entry, canonical isoform): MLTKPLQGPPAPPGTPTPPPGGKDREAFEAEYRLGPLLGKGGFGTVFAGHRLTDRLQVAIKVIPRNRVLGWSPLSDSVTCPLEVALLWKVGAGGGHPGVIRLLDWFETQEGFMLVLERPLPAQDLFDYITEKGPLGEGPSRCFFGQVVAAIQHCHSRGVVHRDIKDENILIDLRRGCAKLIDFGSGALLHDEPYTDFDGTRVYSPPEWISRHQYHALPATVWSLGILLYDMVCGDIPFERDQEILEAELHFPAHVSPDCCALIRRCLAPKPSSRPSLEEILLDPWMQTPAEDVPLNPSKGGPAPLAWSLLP
For experiment [16], the target named is Casein kinase I isoform delta (Homo sapiens, UniProt P48730). In kind it is functional.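 Further: measured as one member (CSNK1D) of a kinome panel.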
Casein kinase I isoform delta, sequence (P48730 whole entry, canonical isoform): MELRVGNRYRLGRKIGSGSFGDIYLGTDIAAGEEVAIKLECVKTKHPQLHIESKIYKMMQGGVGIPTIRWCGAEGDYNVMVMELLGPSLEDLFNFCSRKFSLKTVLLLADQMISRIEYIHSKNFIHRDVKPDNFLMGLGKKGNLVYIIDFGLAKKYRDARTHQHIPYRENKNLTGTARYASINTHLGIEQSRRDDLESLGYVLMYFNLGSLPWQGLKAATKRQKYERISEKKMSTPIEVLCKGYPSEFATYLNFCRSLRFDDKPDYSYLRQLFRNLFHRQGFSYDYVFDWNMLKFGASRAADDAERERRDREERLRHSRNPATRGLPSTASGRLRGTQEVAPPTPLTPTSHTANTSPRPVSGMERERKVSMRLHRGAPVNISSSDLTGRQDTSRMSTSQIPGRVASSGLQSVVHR
The next experiment concerns the target SRSF protein kinase 1 (Homo sapiens, UniProt Q96SB4). In kind it is functional.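 Further: measured as one member of a kinome-wide kinase profiling panel.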
Experiment [17] has as its target Protein kinase C gamma type (Homo sapiens, UniProt P05129). In kind it is functional.
The target in experiment [18] is Calcium/calmodulin-dependent protein kinase type II subunit gamma (Homo sapiens, UniProt Q13555). The class given is functional.
Experiment [19] concerns the target Serine/threonine-protein kinase DCLK1 (Homo sapiens, UniProt O15075). The class given is functional.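 Further: affinity for DCLK1 (listed as DCAMKL1) measured as one member of a kinome-wide kinase profiling panel.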
For experiment [20], the target named is Serine/threonine-protein kinase BRSK1 (Homo sapiens, UniProt Q8TDC3). In kind it is functional.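 Further: measured within a kinome-wide kinase panel, with the target listed as KIAA1811.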
Serine/threonine-protein kinase BRSK1, sequence (Q8TDC3 whole entry): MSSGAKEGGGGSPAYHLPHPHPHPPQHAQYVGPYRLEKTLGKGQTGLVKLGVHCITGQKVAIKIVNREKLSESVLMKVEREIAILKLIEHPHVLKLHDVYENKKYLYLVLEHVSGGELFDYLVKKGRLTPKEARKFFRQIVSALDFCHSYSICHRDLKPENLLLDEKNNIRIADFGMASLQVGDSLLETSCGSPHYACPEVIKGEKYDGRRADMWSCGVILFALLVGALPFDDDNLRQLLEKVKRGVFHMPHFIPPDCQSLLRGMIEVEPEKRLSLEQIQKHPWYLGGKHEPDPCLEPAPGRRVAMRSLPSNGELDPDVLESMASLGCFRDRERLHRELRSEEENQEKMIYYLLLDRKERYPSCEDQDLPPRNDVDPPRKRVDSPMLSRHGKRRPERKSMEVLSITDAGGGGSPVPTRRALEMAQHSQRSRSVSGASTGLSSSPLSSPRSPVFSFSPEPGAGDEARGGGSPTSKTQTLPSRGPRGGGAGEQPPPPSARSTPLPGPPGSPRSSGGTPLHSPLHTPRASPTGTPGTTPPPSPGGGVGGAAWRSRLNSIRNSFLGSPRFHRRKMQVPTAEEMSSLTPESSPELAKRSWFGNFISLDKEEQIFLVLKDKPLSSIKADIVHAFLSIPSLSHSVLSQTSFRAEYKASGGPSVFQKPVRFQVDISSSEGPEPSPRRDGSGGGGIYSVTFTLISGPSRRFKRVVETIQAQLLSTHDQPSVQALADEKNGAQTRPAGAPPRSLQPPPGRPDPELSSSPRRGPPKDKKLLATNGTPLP
Experiment [21] has as its target Homeodomain-interacting protein kinase 4 (Homo sapiens, UniProt Q8NE63). The class given is functional.
A further experiment addresses Caspase-9 (Homo sapiens, UniProt P55211). In words: caspase-9 enzyme inhibition, dose response, selectivity assay for caspase-6 inhibitor project, biochemical, fluorescence, plate reader, cherry-picked samples (AID 743293).
Another experiment concerns the target Caspase-8 (Homo sapiens, UniProt Q14790). In words: caspase-8 inhibition counter-screen, dose response, selectivity assay for caspase-6 inhibitor project, biochemical, Z-IETD-R110 fluorescence, cherry-picked samples (AID 743294).
Another experiment has as its target T1, Aurora kinase A (Homo sapiens, UniProt O14965).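 Further: value from the Navigating the Kinome kinase panel profiling, panel entry STK6.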
T1 sequence (O14965 whole entry): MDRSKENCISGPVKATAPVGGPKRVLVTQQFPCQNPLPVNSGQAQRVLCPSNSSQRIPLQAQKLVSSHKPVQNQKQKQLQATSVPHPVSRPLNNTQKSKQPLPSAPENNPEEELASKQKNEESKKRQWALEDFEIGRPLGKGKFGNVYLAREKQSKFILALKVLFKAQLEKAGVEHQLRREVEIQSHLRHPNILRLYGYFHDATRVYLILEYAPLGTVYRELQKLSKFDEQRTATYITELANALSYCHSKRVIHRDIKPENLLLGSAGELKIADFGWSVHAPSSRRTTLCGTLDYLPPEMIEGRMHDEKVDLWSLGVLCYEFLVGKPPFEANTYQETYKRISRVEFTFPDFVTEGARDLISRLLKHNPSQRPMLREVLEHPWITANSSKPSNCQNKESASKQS
In kind it is functional.

Experiment [22] addresses Tyrosine-protein kinase Lck (Homo sapiens, UniProt P06239). In kind it is functional.
The target in experiment [23] is Dual specificity protein kinase CLK4 (Homo sapiens, UniProt Q9HAZ1). In kind it is functional.
A further experiment has as its system HEK293. The experiment in a line: optical interference in Abeta FP readout, dose response, artefact control for IDE activator project, biochemical, fluorescence polarization (AID 588442). The conditions noted are these: Homo sapiens. In kind it is functional, cell-based.

Homeodomain-interacting protein kinase 4, sequence (Q8NE63 whole entry): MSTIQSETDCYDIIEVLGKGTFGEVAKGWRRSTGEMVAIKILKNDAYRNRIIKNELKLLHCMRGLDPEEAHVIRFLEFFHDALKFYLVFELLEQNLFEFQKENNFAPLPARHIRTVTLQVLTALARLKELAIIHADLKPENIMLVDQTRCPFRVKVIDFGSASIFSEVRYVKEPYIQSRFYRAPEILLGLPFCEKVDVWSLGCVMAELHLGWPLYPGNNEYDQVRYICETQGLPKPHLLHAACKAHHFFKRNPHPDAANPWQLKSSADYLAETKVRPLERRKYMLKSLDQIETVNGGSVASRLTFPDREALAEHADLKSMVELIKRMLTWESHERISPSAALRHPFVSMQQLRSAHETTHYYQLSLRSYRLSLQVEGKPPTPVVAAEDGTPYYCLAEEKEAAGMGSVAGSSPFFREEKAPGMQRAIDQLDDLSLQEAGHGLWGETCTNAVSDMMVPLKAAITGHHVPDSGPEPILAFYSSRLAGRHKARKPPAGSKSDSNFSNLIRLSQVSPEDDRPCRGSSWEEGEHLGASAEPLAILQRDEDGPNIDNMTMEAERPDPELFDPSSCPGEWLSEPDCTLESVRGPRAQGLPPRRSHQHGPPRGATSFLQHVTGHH
SRSF protein kinase 1, sequence (Q96SB4 whole entry): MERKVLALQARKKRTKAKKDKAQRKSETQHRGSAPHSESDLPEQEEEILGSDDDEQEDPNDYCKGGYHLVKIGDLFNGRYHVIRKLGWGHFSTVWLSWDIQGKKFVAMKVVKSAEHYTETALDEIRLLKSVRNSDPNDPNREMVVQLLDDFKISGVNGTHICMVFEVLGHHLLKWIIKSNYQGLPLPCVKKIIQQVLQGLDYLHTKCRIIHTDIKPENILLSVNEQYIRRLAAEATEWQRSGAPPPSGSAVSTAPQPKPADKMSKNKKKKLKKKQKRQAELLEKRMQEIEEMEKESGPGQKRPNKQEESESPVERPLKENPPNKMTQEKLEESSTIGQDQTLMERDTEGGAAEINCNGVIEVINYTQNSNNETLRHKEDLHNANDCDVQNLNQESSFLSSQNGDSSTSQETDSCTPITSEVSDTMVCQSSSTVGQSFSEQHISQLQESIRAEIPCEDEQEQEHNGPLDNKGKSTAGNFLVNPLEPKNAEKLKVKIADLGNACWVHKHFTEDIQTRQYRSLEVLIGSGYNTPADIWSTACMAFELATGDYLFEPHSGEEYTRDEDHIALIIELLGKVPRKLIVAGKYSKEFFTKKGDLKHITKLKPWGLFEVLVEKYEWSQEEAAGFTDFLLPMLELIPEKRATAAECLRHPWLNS

Consider `OC1CCC(Nc2nc(Cl)cc(-c3c[nH]c4ncccc34)n2)CC1` (stereo not drawn), for which the Ki is > 3.98 nM (inactive) in experiment [1]; > 1580 nM (inactive) in [2]; > 3160 nM (inactive) at Ephrin type-A receptor 2; 158 nM (active) in [3]; 1000 nM (active) in experiment [4]; 63.1 nM (active) in [5]. Besides, the Ki in experiment [6] was 3160 nM (active); in experiment [7], 100 nM (active); in [8] it was 200 nM (active); in experiment [9], > 1260 nM (inactive); in experiment [10], 126 nM (active); in experiment [11], > 10000 nM (inactive). Besides, the Ki is > 1580 nM (inactive) in [12]; > 2000 nM (inactive) in experiment [13]; 501 nM (active) in experiment [14]; 398 nM (active) in [15]; 20 nM (active) in experiment [16]; 1000 nM (active) on SRSF protein kinase 1. Besides, the inhibitory constant (Ki) in [17] was 200 nM (active); in [18] it was 31.6 nM (active); in experiment [19], > 10000 nM (inactive); in experiment [20] it was 1000 nM (active); in [21], 398 nM (active). For the same molecule, the pKi in [3] is listed as 6.8; in experiment [4], 6; in experiment [5], 7.2; in experiment [7], 7; in experiment [8] it was 6.7; in experiment [10], 6.9. The pKi in experiment [14] came out at 6.3; in experiment [15], 6.4; in experiment [16] it was 7.7; at SRSF protein kinase 1, 6; in [17] it was 6.7; in experiment [18] it was 7.5. Further, the pKi in [20] came to 6; in [21], 6.4.
In the case of `O=C(COC(=O)c1ccc([N+](=O)[O-])s1)Nc1ccc(F)cc1`, the AC50 on Caspase-9 is 27200 nM (active); at Caspase-8, 18600 nM (active).
As to `COc1cccc(CNC(=O)c2cnc(-c3ccncc3)nc2)c1`, the results for the Ki (on Aurora kinase A; in experiment [22]; in experiment [23]) were > 1580 nM (inactive), > 6310 nM (inactive) and > 2510 nM (inactive), respectively.
Turning to `CCN(CC)CCCC(C)n1c2nc(=O)[nH]c(=O)c-2nc2cc(Cl)ccc21` (stereo not drawn), the EC50 in the experiment with HEK293 was > 54700 nM (inactive).
